The values that follow are results of earlier work, collected in patent US7125861B2, “Water-soluble chitosan-indole-3-propionic acid conjugates” (priority 2003, dated 2006).

The structures appear in SMILES notation.

For the data set the following is noted: background statement on unconjugated indole-3-propionic acid.

On to `O=C(O)CCc1c[nH]c2ccccc12` [indole-3-propionic acid, 3-(3-Indolyl)propanoic acid], for which the solubility in water result was “not water soluble”.
